According to patent USRE37886E1, “1-(1,2-Disubstituted piperidinyl)-4-substituted piperazine derivatives” (Janssen Pharmaceuticals, N.V., priority 1995, dated 2002):

How the values were obtained:
[1] = test system: substance-P induced relaxation of the pig coronary arteries; assay: Antagonism of substance-P induced relaxation of the pig coronary arteries; type: cell-based; details: concentration at which 50% of the response to 10^−9 M substance P was inhibited, 30 minutes incubation, prostaglandin F2a precontracted segments
Text: (§1) The compounds of the present invention are potent inhibitors of neurokinin-mediated effects, in particular those mediated via the NK1 receptor, and may therefore be described as tachykinin antagonists, especially as substance P antagonists, as indicated in vitro by the antagonism of substance P induced relaxation of pig coronary arteries which is described hereinafter. The binding affinity of the present compounds for the human, guinea-pig and gerbil neurokinin receptors may be determined in vitro in a receptor binding test using ^3H-substance-P as radioligand. The subject compounds also show substance-P antagonistic activity in vivo as may be evidenced by, for instance, the antagonism of substance P-induced plasma extravasation in guinea-pigs, or the antagonism of drug-induced emesis in ferrets (Watson et al., Br. J. Pharmacol. 115, 84-94, 1995).
Antagonism of substance-P induced relaxation of the pig coronary arteries
Segments of coronary artieries taken from pigs (killed by injection of an overdose of sodium pentobarbital) were inverted and mounted for recordign of isometric tension in organ baths (volume 20 ml) with the endothelium at the outside. The preparations were bathed in Krebs-Henseleit solution. The solution was kept at 37° C. and gassed with a mixture of O2/CO2 (95/5). After stabilisation of the preparations, prostaglandin F2a (10^−5 M) was administered to induce a contraction. This was repeated until contractivle responses became stable. Then prostaglandin F2a was again administered and substance P(3×10^−10 M and 10^−9 M cumulatively) was added. Substance P induced endothelium dependent relaxations. After washing away the agonists, a known concentratin of a compound of formula (I) was added. After an incubation period of 30 minutes, prostaglandin F2a ([…]) and the same concentrations of sbustance P as described above were again administered in the presence of the compound to be tested. Relaxations caused by substance P were expressed as relaxations under control conditions, and percent inhibition of the response to […] substance P was taken as a measure of the antagonistic activity of the compound to be tested. Table 6 lists the IC50 values (concentration at which 50% of the response to […] substance P was inhibited by the test compound) for the tested compounds.

[2] = test system: substance P induced plasma extravasation; assay: Antagonism of substance P induced plasma extravasation in guinea-pigs; type: in vivo; details: lowest active dose, female guinea-pigs; for LAD nose: compound 1 hour prior to substance P (2 mg/kg, femoral artery), blue colouring of nose 10 minutes after challenge; for LAD conjunctiva / LAD forepaws / LAD trachea / LAD urinary bladder: compound 1 hour prior to substance P; for LAD conjunctiva: blue colouring of conjunctiva 10 minutes after challenge; for LAD forepaws: blue colouring of forepaws 10 minutes after challenge; for LAD trachea: blue colouring of trachea 30 minutes after challenge; for LAD urinary bladder: blue colouring of urinary bladder 30 minutes after challenge
Text: as §1
Antagonism of substance P induced plasma extravasation in guinea-pigs
Plasma extravasation was induced by injection of substance P (2 mg/kg) in the femoral artery of female guinea-pigs. Evans Blue dye (30 mg/kg) was injected simultaneously. The test compound or solvent was administered 1 hour prior to substance P injection. 10 minutes after challenge, the aminals were checked for blue colouring (a direct measure for plasma extravasation) of the nose, the forepaws, and the conjectiva. 30 minutes after challenge, the animals were sacrificed by CO2 gas inhalation and checked for blue colouring of the trachea and the urinary bladder. […]

IC50 ([1]; Sus scrofa, 0.5 h) | Structure (SMILES) | IC50 [1] | LAD nose [2] | LAD conjunctiva [2] | LAD forepaws [2] | LAD trachea [2] | LAD urinary bladder [2]
– | O=C(c1cc(C(F)(F)F)cc(C(F)(F)F)c1)N1CCC(N2CCN(CCc3ccccc3)CC2)CC1Cc1ccccc1 (stereo not shown) [Compound 44] | 8.34 nM | – | – | – | – | –
– | CC(C)NC(=O)CN1CCN(C2CCN(C(=O)c3cc(C(F)(F)F)cc(C(F)(F)F)c3)C(Cc3ccccc3)C2)CC1 (racemic) [Compound 76] | 14.1 nM | – | – | – | – | –
– | O=C(c1ccco1)N1CCN(C2CCN(C(=O)c3cc(C(F)(F)F)cc(C(F)(F)F)c3)C(Cc3ccccc3)C2)CC1 (stereo not shown) [Compound 21] | – | 10.0 mg/kg | 10.0 mg/kg | 10.0 mg/kg | >40 mg/kg | 10.0 mg/kg
– | Cc1cc(C)cc(C(=O)N2CCC(N3CCN(CC(=O)Nc4c(C)cccc4C)CC3)CC2Cc2ccccc2)c1 (stereo not shown) [Compound 5] | 4.61 nM | – | – | – | – | –
– | O=C(CN1CCN(C2CCN(C(=O)c3cc(C(F)(F)F)cc(C(F)(F)F)c3)C(Cc3ccccc3)C2)CC1)Nc1ccccc1 (stereo not shown) [Compound 37] | 9.6 nM | – | – | – | – | –
– | O=C(CN1CCN(C2CCN(C(=O)c3cc(C(F)(F)F)cc(C(F)(F)F)c3)C(Cc3ccccc3)C2)CC1)N1Cc2ccccc2C1 (racemic) [Compound 121] | 2.77 nM | – | – | – | – | –
4.99 nM | CN(CC(CCN1CCN([C@H]2CCN(C(=O)c3cc(C(F)(F)F)cc(C(F)(F)F)c3)[C@@H](Cc3ccccc3)C2)CC1)c1ccc(Cl)c(Cl)c1)C(=O)c1ccccc1 (mixture of isomers) [Compound 93, (±)-cis-N-[4-[4-[1-[3,5-bis(trifluoromethyl)benzoyl]-2-(phenylmethyl)-4-piperidinyl]-1-piperazinyl]-2-(3,4-dichlorophenyl)butyl]-N-Methylbenzamide (E)-2-butenedioate (1:2)] | – | – | – | – | – | –
– | O=C(CN1CCN(C2CCN(C(=O)c3cc(C(F)(F)F)cc(C(F)(F)F)c3)C(Cc3ccccc3)C2)CC1)Nc1nccn1Cc1ccccc1 (racemic) [Compound 97] | 1.58 nM | – | – | – | – | –
– | CN(CC(CCN1CCN(C2CCN(C(=O)c3cc(C(F)(F)F)cc(C(F)(F)F)c3)C(Cc3ccccc3)C2)CC1)c1ccc(Cl)c(Cl)c1)C(=O)c1ccccc1 (racemic) [Compound 92] | 0.78 nM | – | – | – | – | –
– | O=C(c1cc(C(F)(F)F)cc(C(F)(F)F)c1)N1CCC(N2CCN(c3nc4ccccc4[nH]3)CC2)CC1Cc1ccccc1 (racemic) [Compound 40] | – | 10.0 mg/kg | 10.0 mg/kg | 10.0 mg/kg | >40 mg/kg | >40 mg/kg
– | Cc1cccc(C)c1NC(=O)CCN1CCN(C2CCN(C(=O)c3cc(C(F)(F)F)cc(C(F)(F)F)c3)C(Cc3ccccc3)C2)CC1.O=C(O)C=CC(=O)O.O=C(O)C=CC(=O)O (racemic) [Compound 103] | – | 2.50 mg/kg | 2.50 mg/kg | 2.50 mg/kg | 10.0 mg/kg | 2.50 mg/kg
– | O=C(c1cc(C(F)(F)F)cc(C(F)(F)F)c1)N1CCC(N2CCN(CC=Cc3ccccc3)CC2)CC1Cc1ccccc1 (stereo not shown) [Compound 29] | 0.45 nM | – | – | – | – | –
– | Cc1cc(C)cc(C(=O)N2CCC(N3CCN(CC=Cc4ccccc4)CC3)CC2Cc2ccccc2)c1 (stereo not shown) [Compound 8] | – | 10.0 mg/kg | 10.0 mg/kg | 10.0 mg/kg | >40 mg/kg | >40 mg/kg
– | Cc1cc(C)cc(C(=O)N2CCC(N3CCN(C(c4ccccc4)c4ccccc4)CC3)CC2Cc2ccccc2)c1 (racemic) [Compound 12] | – | >40.0 mg/kg | >40.0 mg/kg | >40.0 mg/kg | >40 mg/kg | 40.0 mg/kg
– | Cc1cccc(C)c1NC(=O)CN1CCN(C2CCN(C(=O)c3cc(C(F)(F)F)cc(C(F)(F)F)c3)C(Cc3ccccc3)C2)CC1 (single isomer, unassigned) [Compound 124] | 0.06 nM | – | – | – | – | –
– | O=C(c1cc(C(F)(F)F)cc(C(F)(F)F)c1)N1CCC(N2CCCN(Cc3ccccc3)CC2)CC1Cc1ccccc1 (racemic) [Compound 63] | 8.38 nM | – | – | – | – | –

IC50 ([1]; Sus scrofa, 0.5 h) | Structure (SMILES) | IC50 [1] | LAD nose [2] | LAD conjunctiva [2] | LAD forepaws [2] | LAD trachea [2] | LAD urinary bladder [2]
– | O=C(c1cc(C(F)(F)F)cc(C(F)(F)F)c1)N1CCC(N2CCN(CC(O)c3ccccc3)CC2)CC1Cc1ccccc1 (racemic) [Compound 86] | 2.13 nM | – | – | – | – | –
– | CC(=O)NCC(c1ccccc1)N1CCN(C2CCN(C(=O)c3cc(C(F)(F)F)cc(C(F)(F)F)c3)C(Cc3ccccc3)C2)CC1 (racemic) [Compound 82] | – | 2.50 mg/kg | 2.50 mg/kg | 2.50 mg/kg | 10.0 mg/kg | >40 mg/kg
– | O=C(c1cc(C(F)(F)F)cc(C(F)(F)F)c1)N1CCC(N2CCN(c3cccc(C(F)(F)F)c3)CC2)CC1Cc1ccccc1 (racemic) [Compound 120] | 0.82 nM | – | – | – | – | –
– | O=C(CN1CCN(C2CCN(C(=O)c3cc(C(F)(F)F)cc(C(F)(F)F)c3)C(Cc3ccccc3)C2)CC1)C1CCc2ccccc21 (racemic) [Compound 99] | 1.46 nM | – | – | – | – | –
– | NC(=O)c1cc(Cl)c(NC(=O)CN2CCN([C@@H]3CCN(C(=O)c4cc(C(F)(F)F)cc(C(F)(F)F)c4)[C@@H](Cc4ccccc4)C3)CC2)c(Cl)c1 (racemic) [Compound 74] | – | 10.0 mg/kg | 10.0 mg/kg | 10.0 mg/kg | >40 mg/kg | >40 mg/kg
– | Cc1ncc(Cn2c(N3CCN(C4CCN(C(=O)c5cc(C(F)(F)F)cc(C(F)(F)F)c5)C(Cc5ccccc5)C4)CC3)nc3ccccc32)o1 (stereo not shown) [Compound 23] | – | 10.0 mg/kg | 40.0 mg/kg | 10.0 mg/kg | >40 mg/kg | >40 mg/kg
– | Cc1cccc(C)c1NC(=O)CN1CCN(C2CCN(C(=O)c3cc(C(F)(F)F)cc(C(F)(F)F)c3)C(Cc3ccccc3)C2)CC1 (racemic) [Compound 58] | 0.24 nM | – | – | – | – | –
– | O=C(CN1CCN(C2CCN(C(=O)c3cc(C(F)(F)F)cc(C(F)(F)F)c3)C(Cc3ccccc3)C2)CC1)N1Cc2ccccc2C1 (racemic) [Compound 122] | 1.68 nM | – | – | – | – | –
– | O=C(c1cc(C(F)(F)F)cc(C(F)(F)F)c1)N1CCC(N2CCN(C(c3ccc(F)cc3)c3ccc(F)cc3)CC2)CC1Cc1ccccc1 (stereo not shown) [Compound 35] | 17 nM | – | – | – | – | –
– | Cc1cccc(C)c1NC(=O)CN1CCCN(C2CCN(C(=O)c3cc(C(F)(F)F)cc(C(F)(F)F)c3)C(Cc3ccccc3)C2)CC1 (racemic) [Compound 65] | 6.39 nM | – | – | – | – | –
– | O=C(c1cc(C(F)(F)F)cc(C(F)(F)F)c1)N1CCC(N2CCN(CC=Cc3ccccc3)CC2)CC1Cc1ccccc1 (stereo not shown) [Compound 28] | 13.3 nM | – | – | – | – | –
– | CC(=O)NCC(c1ccccc1)N1CCN(C2CCN(C(=O)c3cc(C(F)(F)F)cc(C(F)(F)F)c3)C(Cc3ccccc3)C2)CC1 (racemic) [Compound 83] | – | 0.63 mg/kg | 2.50 mg/kg | 0.63 mg/kg | >40 mg/kg | 0.63 mg/kg
– | CCn1nnn(CCN2CCN(C3CCN(C(=O)c4cc(C(F)(F)F)cc(C(F)(F)F)c4)C(Cc4ccccc4)C3)CC2)c1=O.O=C(O)C=CC(=O)O.O=C(O)C=CC(=O)O (racemic) [Compound 96] | – | 10.0 mg/kg | 10.0 mg/kg | 10.0 mg/kg | >40 mg/kg | >40 mg/kg
– | Cc1cc(C)cc(NC(=O)CN2CCN(C3CCN(C(=O)c4cc(C(F)(F)F)cc(C(F)(F)F)c4)C(Cc4ccccc4)C3)CC2)c1 (racemic) [Compound 47] | – | 40.0 mg/kg | 40.0 mg/kg | 40.0 mg/kg | >40 mg/kg | >40 mg/kg
– | O=C(O)C=CC(=O)O.O=C(O)C=CC(=O)O.O=C(c1cc(C(F)(F)F)cc(C(F)(F)F)c1)N1CCC(N2CCN(CCc3ccccc3)CC2)CC1Cc1ccccc1 (racemic) [Compound 90] | – | 10.0 mg/kg | 10.0 mg/kg | 10.0 mg/kg | 10.0 mg/kg | >40 mg/kg
